# Reference: US10578608B1, “Tools to detect, track and target cancer cells in vivo” (The Regents of the University of California, priority 2015, dated 2020)
# Entries after “also recorded” stand apart in the source; their conditions may differ. Where a name gives a salt, the structure may show the parent alone. k = constrained ethyl (cEt); d = 2'-deoxy (DNA)
# Columns and labels:
# [1] = test system: Msi2 Reporter KPf/fC cells; experiment: In vitro gemcitabine treatment with live imaging of Msi2 reporter KPf/fC cells; type: cell-based, mouse; settings: 10 μM gemcitabine, imaged up to 48 h
# pancreatic cancer = settings: cited from earlier work
# [2] = test system: REM2-KPf/fC pancreatic tumors; experiment: In vivo drug therapy of tumor-bearing REM2-KPf/fC mice, reporter frequency by flow cytometry; design: species or system mouse; settings: increasing doses (200 or 500 mg/kg IP)
# From the text: The development of the reporter gave us a unique opportunity to determine whether it could be used as a new image based tool to identify therapy resistant cells in pancreatic cancer. The chemotherapeutic agent gemcitabine remains the standard of care for adjuvant treatment of pancreatic cancer and is the most commonly used single agent in the treatment of advanced disease. Despite this, clinical response rates to gemcitabine are below 10% and it fails to prevent relapse after surgery in 85% of patients. Gemcitabine was delivered to tumor-bearing REM2-KPf/fC mice in vivo at increasing doses to determine the composition of residual disease. […] Importantly, these experiments identify Msi reporter positive cells as the predominant gemcitabine resistant population.
# 9-10 week old REM2-KP^f/fC mice were treated with Gemcitabine alone or in combination with Crizotinib or iBet762 for 6 days. On day 6, tumors were removed, dissociated (as described above), counted for total cellular content, stained with anti-mouse EpCAM antibody and analyzed for reporter expression by flow cytometry. Gemcitabine (Sigma, G6423) was resuspended in H2O at 20 mg/ml and delivered at 200 mg/kg or 500 mg/kg by IP injection twice over 6 days (on day 0 and 3). […]
# MSI1 RNA = experiment: MSI1 expression after ASO free uptake (q-RT-PCR); type: cell-based, human; settings: 24 hours, MIA PaCa-2 cells
# Protocol: (FIG. 8 F to FIG. 8H) Real time PCR analysis of Msi expression following ASO free uptake in MIA PaCa-2 cells. MIA PaCa-2 cells were treated with 2 Gen 2.5 cEt ASOx target MSI1 or Control Gen 2.5 ASO for 24 hours, RNA was isolated and target knockdown (MSI1 RNA level) was determined by q-RT-PCR. IC50 values for each ASO were calculated using GraphPad Prism software; each treatment condition was performed in triplicate. (FIG. 8I) Colony formation assay in MSI1 ASO-treated MIA PaCa-2 cells after weekly delivery of control or MSI1 ASOs; colonies were counted after 4 weeks; n=3 for each ASO tested. (FIG. 8J) In vivo tracking of tumor volume in MSI1 ASO treated MIA PaCa-2 tumors with intratumoral delivery of control or MSI1 ASOs every day for 5 days followed by 2 days off; n=5 for each ASO tested. Nonlinear regression was used to determine the difference in slope between Control ASO and MSI1-ASO-1 (p<0.001). (FIG. 8K) In vivo tracking of tumor volume of primary KP^f/fC tumors with intratumoral delivery of control ASO or MSI1 ASOs following tumor establishment (n=4). […]
# To identify human Msi ASO inhibitors, rapid throughput screens were performed to identify effective ASOs as previously described (Wang, J. C. Y. & Dick, J. E. Cancer stem cells: lessons from leukemia. Trends in Cell Biology 15, 494-501 (2005); Reya, T., Morrison, S. J., Clarke, M. F. & Weissman, I. L. Stem cells, cancer, and cancer stem cells. Nature 414(6859):105-11 (2001); Carroll, J. B. et al. Potent and Selective Antisense Oligonucleotides Targeting Single-Nucleotide Polymorphisms in the Huntington Disease Gene/Allele-Specific Silencing of Mutant Huntingtin. Molecular Therapy 19, 2178-2185 (2009); Samuel, V. T. et al. Targeting foxo1 in mice using antisense oligonucleotide improves hepatic and peripheral insulin action. […] Gene expression was assessed with taqman probes for MSI1 and MSI2. […] Colonies were counted 21 days after the first ASO treatment. […] Tumor measurements were recorded every 3 days. […]
# blast crisis CML cells = settings: versus 2-fold difference without treatment
# From the text: To account for any differences in cell survival between GFP+ and GFP− cells that is solely due to differences in differentiation status, we specifically analyzed cell survival of GFP+ and GFP− leukemia cells within the lineage-negative (Lin−) fraction.
# To account for any differences in cell survival between GFP^+ and GFP^− cells that is solely due to differences in differentiation status, we specifically analyzed cell survival of GFP^+ and GFP^− leukemia cells within the lineage-negative (Lin^−) fraction.
# Cells were then washed and stained with antibodies against lineage markers. Apoptosis assays were performed by staining cells with Annexin-V (BD Pharmingen).
# blast crisis CML = experiment: In vivo identification of therapy-resistant residual leukemia cells after Gleevec; design: species or system mouse; settings: Gleevec 150 mg/kg daily oral gavage, NSG mice
# Protocol: (FIG. 41A) The strategy used to track residual leukemia cells in vivo. KLS cells isolated from Msi2^GFP/Actb-DsRed mice were co-infected with BCR-ABL1 and NUP98-HOXA9 and subsequently transplanted into NOD-Scid IL2Rg^null (NSG) recipient mice. Fourteen days post-transplantation (D14), recipient mice were treated daily with Gleevec or vehicle alone (control) for […] and analyzed by flow cytometry on D20. (FIG. 41B) Average frequency of Msi2+ (% GFP^+) leukemia cells determined at various anatomic sites from mice with blast crisis CML (n=3 mice). (FIG. 41C) Extent of residual disease at different anatomic sites following Gleevec treatment.
# To test this, REM2 mice were crossed with mice expressing dsRed under the control of a ubiquitous promoter (Vintersten et al., 2004). […]
# To determine sites that harbor therapy-resistant cells, bone marrow-derived KLS cells were isolated and sorted from Msi2^GFP/Acb-DsRed mice and cultured in X-Vivo 15 media (Lonza) supplemented with 50 μM 2-mercaptoethanol, 10% (vol/vol) fetal bovine serum, SCF (100 ng/ml, R&D Systems) and TPO (20 ng/ml, R&D Systems). […] Fifteen days post-transplantation (D15), recipient mice were treated daily with Gleevec (150 mg/kg) or H2O (control) via oral gavage for five consecutive days (D15 to D19) and analyzed by flow cytometry on D20.
compound,measurement,setting,value
"Nc1ccn([C@@H]2O[C@H](CO)[C@@H](O)C2(F)F)c(=O)n1 [gemcitabine, Gemcitabine]",Msi2 expression in Msi2 reporter− KPf/fC cells after in vitro treatment,[1],do not turn on Msi2 expression
same,Patients in whom it fails to prevent relapse after surgery,pancreatic cancer; adjuvant,85%
same,Clinical response rates,pancreatic cancer; pancreatic cancer patients,below 10%
same,Effect on GFP+ (Msi2 reporter+) tumor cells,[2],resistant and remained viable; also recorded: preferential survival
same,Effect on GFP− (Msi2 reporter−) tumor cells,[2],sensitive to gemcitabine and were preferentially eliminated
"5′-GGCTACTACGCCGTCA-3′ (sugars from the 5' end k3 d10 k3, backbone and methylation of C not given here) [Control ASOs]",MSI1 expression in cell lines after ASO treatment,MSI1 RNA,did not suppress MSI1 expression
"Cc1ccc(NC(=O)c2ccc(CN3CCN(C)CC3)cc2)cc1Nc1nccc(-c2cccnc2)n1 [imatinib, imatinib mesylate]",Increase in difference in cell survival between Lin− GFP+ and Lin− GFP− cells following imatinib treatment,blast crisis CML cells,3 fold
same,GFP+ leukemic cell population remaining following imatinib treatment,"blast crisis CML; calvarium, femur, tibia, sternum or pelvis",~37%
same,GFP+ leukemic cell population remaining following imatinib treatment,blast crisis CML; spleen,~60%
"5′-TTACATATGATACAGG-3′ (sugars from the 5' end k3 d10 k3, backbone and methylation of C not given here) [ASO-2]",MSI1 expression in cell lines after ASO treatment,MSI1 RNA,inhibited MSI1 expression
